Data on two molecules can be found in patent publication US20250332283A1, “NUCLEOTIDE DELIVERY FROM INJECTABLE HYDROPHOBIC BIOMATERIAL” (DANMARKS TEKNISKE UNIVERSITET, priority 2022, published 2025).

The conditions of data set [1]: at a neutral pH of 7; cited from earlier work.
A short description of data set [2]: Biodistribution of Gd-ASO after intratumoral injection, ICP-MS. Type of data set: in vivo, 4T1 tumor bearing Balb/CJRj mice. Here is the method:
Methods: Gadolinium-labeled ASOs were synthesized as described in example 41. Spermine-Chol Gd-ASO complexes were prepared using the hydrophobic ionpairing method as described in example 43. The ASO complex was concentrated by freeze-drying, dissolved i in DMSO and embedded into NCCell (SuBen: GTH: EtOH: DMSO 55:20:2:15) according to example 45. The final Gd-ASO concentration in the NCCell was […]. Free Gd-ASO was prepared in PBS buffer at a concentration of 0.95 μg/μL.
On Day 0, 4T1 tumor bearing Balb/CJRj mice were, under anesthesia (isoflurane), injected intratumorally with 50 μL of NCCell or 42 μL of free Gd-ASO in PBS, with a total concentration of 40 μg Gd-ASO per injection. […] Free ASO was injected using a 23G needle.
Blood was collected from different groups 10 minutes, 1 hour, 4 hours, 24 hours, 72 hours and 5 days after treatment. Organs and other fluids (liver, spleen, lungs, kidneys) were harvested 24 hours and 5 days after treatment. For sample processing, full organ weight was recorded, as well as the weight of the tissue used, and was further processed for ICP-MS measurements. To prepare tissue for ICP-MS analysis, 50-100 mg of organs or NCCell were digested in 500 μL HNO3, (69%) 50 μL HCl (37%) and 300 μL H2O2 (35%) at 65° C. overnight followed by further dilutions in water and 2% HCl and subjected to ICP-MS analysis using Ir (0.5 ppb) as internal standard.

Entries after “also recorded” stand apart in the source; their conditions may differ. {5AmMC6} = amino-modifier C6 linker (IDT), here bearing the Gd-DOTA label; l = locked nucleic acid (LNA); d = 2'-deoxy (DNA)

A word on the logP: it is a log measure of how a compound divides between an organic and an aqueous phase. For the molecule `CCN(CCO)CCCOc1ccc2c(Nc3cc(CC(=O)Nc4cccc(F)c4)[nH]n3)ncnc2c1` [AZD281], the log partition coefficient (logP) in data set [1] is given as 2.
Consider “free ASO: Gd-DOTA labelled ASO /5AmMC6/+G*+T*+C*A*C*A*A*T*G*C*A*T*T*+C*+T*+A in PBS (DNA GTCACAATGCATTCTA; sugars from the 5' end l3 d10 l3, all phosphorothioate, 5' {5AmMC6}, methylation of C not given here; Gd-DOTA attached via 5' amino linker)”, for which, in data set [2] (24 and 120 hours after intratumoral injection of 40 μg Gd-ASO), the “Gd-ASO concentration in liver, spleen, kidney and lung” value was “highest concentration of free ASO was observed in the lungs, followed by the liver and spleen”. Also, in data set [2] (10 minutes to 5 days after intratumoral injection, listed as free ASOs), the Gd-ASO in blood entry is listed as “could be detected 10 minutes after injection; also recorded: no detectable Gd signal in the blood at later timepoints”.
